Tests used:
Type in all cases: in vivo, mouse
NSGW41 H-Mice [1] = assay: E2 administration in drinking water, tolerability; details: 1 μM estradiol or above, drinking water ad libitum
Procedure: (§1) E2 Administration. NSGW41 H-Mice were given drinking water ad libitum containing 1 μM estradiol.

NSGW41 H-Mice [2] = assay: T-independent antibody response to DNP-CpG injection, E2 water vs plain water; details: DNP-CpG i.p.
Text: While NP16-CGG evaluates the T cell-dependent response, the NSGW41 H-Mice immune system's ability to generate a T cell-independent antibody response was investigated. To do so, 16 mice NSGW41 H-Mice were segregated amongst the E2 and plain water groups and injected with Haptenated TLR9 ligand, DNP-CpG IP. […] Thus, NSGW41 H-Mice receiving E2 treatment can mount a mature antibody response to T-dependent and T-independent antigens complete with class-switched, high affinity antibody production and generation of both plasma and memory B cells.
(§2) Immunizations. NSGW41 H-Mice were injected intraperitoneally with 4-hydroxy-3-nitrophenylacetlyl (NP) conjugated to CGG (NP-CGG) (average: 16 NP molecule conjugated with one CGG molecule; Biosearch; 100 μg) in PBS (100 μl) with Alum (100 μl), or 2,4-Dinitrophenyl conjugated to CpG (DNP-CpG) (1 DNP molecule conjugated with one CpG molecule; Eurofins Genomics; 25 μg) in PBS (100 μl) without adjuvant. Sera were collected before injection and at specified time points after injection.
as §1
(§3) Detection of antibodies. Titers of IgM, IgD, IgG and IgA from in vitro culture supernatants of stimulated human and H-Mice B cells or titers of circulating and/or NP-binding/DNP-binding IgM, IgG, and IgA were measured using specific ELISAs. IgE were detected by sandwich ELISAs, using plates coated with anti-human IgE mAb. Serial two-fold diluted serum samples in PBS-(0.05%) Tween 20 (PBS-Tween 20) were added to the plates and incubated for 2 h at 23° C. After washing with PBS-Tween 20, biotin-detection antibody was added. After a final washing, IgE antibodies were detected using streptavidin-horseradish peroxidase. Antigen specific antibody titers are expressed as relative units (RU), defined as the dilution factor needed to reach 50% saturation binding, as calculated using GraphPad Prism® software (GraphPad).
(§4) Flow cytometry. Total B cells and PBMCs were subject to flow cytometry for pre-and-post isolation phenotypic analysis using the following surface markers and fluorophores: PEcy7-anti-human-CD19 (clone H1B19; Biolegend), PE-anti-human-CD27 (clone M-T271; Biolegend), BV421-anti-human-IgD (clone HB-7; Biolegend), FITC-anti-human-IgG (clone G18-145; BD Pharmingen), APC-anti-human-IgA (clone IS11-8E10; Miltenyi Biotec) and APC-Cy7-anti-IgM (clone MHM-88, Biolegend) and run on a BD LSRII (BD Biosciences) with the FACSDiva software (BD Biosciences). Data were analyzed using FlowJo software (FlowJo LLC).

NSGW41 H-Mice [3] = assay: T-dependent antibody response to NP16-CGG immunization, E2 water vs plain water
Text: To address the antibody response within NSGW41 H-Mice, 16 NSGW41 H-Mice were segregated into two groups of 8 mice each. One group was fed water containing estrogen (NSGW41 H-Mice) and the other plain water (huNSG^W41), each of them were then i.p. injected with NP16-CGG and Alum. The NSGW41 H-Mice were compared to Jackson Labs CD34^+ humanized mice (Jax CD34^+). […] However, the Jax CD34^+ had dramatically lower titers, correlating with reduced human reconstitution. […] (FIG. 3B).
E2 promotes myeloid lineage differentiation and B2 proliferation. Since estrogen administration had such a dynamic impact on the maturation of antibody response within NSGW41 H-Mice, the cellular composition and lymphoid architecture. B1/B2 cell ratios were compared across HIS platforms following immunization with NP-CGG. […] To investigate the formation of lymphoid follicles and germinal center structures, Jax CD34^+, huNSG, and NSGW41 H-Mice spleens were extracted 10 days post-immunization. […] These findings are supported by IHC staining of huCD20, huCD3 and huKI67 showing germinal center structures in NSGW41 H-Mice (FIG. 5D).
as §2, §1, §3, §4

[4] = NP16-CGG and alum i.p., E2-water vs plain water

C[C@]12CC[C@@H]3c4ccc(O)cc4CC[C@H]3[C@@H]1CC[C@@H]2O [E2, estradiol]
Adverse effects of drinking water containing estradiol (NSGW41 H-Mice [1]): no adverse effects | Class-switched IgG and IgA antibody production (NSGW41 H-Mice [2]): dynamically potentiated | DNP4-binding IgM, IgG and IgA titers (NSGW41 H-Mice [2]): significantly increased | Numbers of IgG+ and IgA+ B cells, splenic IgD-CD27+ memory B cells and bone marrow CD27+CD38+ plasmablasts/plasma cells (NSGW41 H-Mice [2]): increased numbers | Total IgM production (NSGW41 H-Mice [2]): comparable | Class-switched IgG, IgG1-4, IgA and IgE production (NSGW41 H-Mice [3]; [4]): drastically increased | NP7-binding IgM and IgG antibody titers (NSGW41 H-Mice [3]; [4]): significantly greater | Number of spleen IgG and IgA class-switched effector, IgD-CD27+ memory B cells and bone marrow CD27+CD38+ plasmablasts/plasma cells (NSGW41 H-Mice [3]; [4]): increased number | IgM serum titers (NSGW41 H-Mice [3]; NP16-CGG and alum i.p., estrogen water (NSGW41 H-Mice) vs plain water (huNSGW41)): comparable | Germinal center B cells (NSGW41 H-Mice [3]; lymph nodes, 10 days post-immunization with NP-CGG, estrogen pre-conditioned vs untreated): two-fold increase
